Experimental data as given in publication PMC7413254 (Nature Communications, 2020).
Like-named read-outs stand apart in the source and are kept apart here.

Columns and labels:
non-expressing oocytes [1] = experiment: cells; assay type: cell-based, Xenopus laevis; conditions: non-expressing oocytes, total [3H]CQ transport, normalised to the oocyte type control
Summary of the method: (§1)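 Inward transport into oocyte cytosol from pH 5.5 medium models PfCRT efflux from the acidic digestive vacuole. Incubation 1.5 h, 27.5 °C; termination by ice-cold washes; lysate radioactivity counted.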

PfCRT^3D7 [2] = biological target: T1, PfCRT^3D7 (Plasmodium falciparum, UniProt Q8IBZ9); experiment: cell-based; assay type: cell-based; conditions: PfCRT3D7 oocytes, total [3H]CQ transport, normalised to the oocyte type control
Summary of the method: as §1

non-expressing oocytes [3] = assay type: cell-based, Xenopus laevis; conditions: non-expressing oocytes, total [3H]CQ transport, normalised to the oocyte type control
Summary of the method: (§2)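 Oocytes (ten per treatment, ≥4 independent frogs/days) were preloaded by injecting VF-6 in 25 nL ND96 at pH 5.0, 5.5, 6.0 or 7.0, or Na^+-free choline buffer, then uptake run 1.5 h, 27.5 °C, ND96 pH 5.5 by default. Internal concentrations assumed ~400 nL oocyte volume.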

PfCRT^Dd2 [4] = biological target: T2, PfCRT^Dd2 (Plasmodium falciparum, UniProt Q9N623, A220S/I356T/K76T/M74I/N326S/N75E/Q271E/R371I); experiment: cell-based; assay type: cell-based; conditions: for Uptake of [3H]CQ (% PfCRTDd2 control), trans-stimulation / PfCRT-mediated [3H]CQ transport, trans-stimulation (% PfCRTDd2 control): PfCRTDd2 oocytes; for Uptake of [3H]CQ (% PfCRTDd2 control), trans-stimulation: total [3H]CQ transport, normalised to the oocyte type control; for PfCRT-mediated [3H]CQ transport, trans-stimulation (% PfCRTDd2 control): normalised to oocyte type control; for [3H]CQ transport (% PfCRTDd2 control), trans-stimulation, PfCRTDd2: PfCRT-mediated component (background subtracted), mean ± SEM, SEM
Summary of the method: as §2

PfNT1 = biological target: T3, PfNT1 (Plasmodium falciparum, UniProt Q8IDM6); experiment: cell-based; assay type: cell-based; conditions: PfNT1 oocytes, total [3H]CQ transport, normalised to the oocyte type control
T3 construct: expressed in transfected cells; host or cells: Xenopus laevis oocytes (stage V-VI), cRNA-injected
Summary of the method: as §2

PfCRT^3D7 [5] = biological target: T1, PfCRT^3D7; experiment: cell-based; assay type: cell-based; conditions: PfCRT3D7 oocytes; for Uptake of [3H]CQ (% PfCRT3D7 control), trans-stimulation: total [3H]CQ transport, normalised to the oocyte type control; for PfCRT-mediated [3H]CQ transport, trans-stimulation (% PfCRT3D7 control): normalised to oocyte type control
Summary of the method: as §2

PfCRT^Ecu1110 [6] = biological target: T4, PfCRT^Ecu1110 (Plasmodium falciparum, UniProt Q9N623, A220S/I356L/K76T/N326D); experiment: cell-based; assay type: cell-based; conditions: for Uptake of [3H]CQ (% PfCRTEcu1110 control), trans-stimulation / PfCRT-mediated [3H]CQ transport, trans-stimulation (% PfCRTEcu1110 control): PfCRTEcu1110 oocytes; for Uptake of [3H]CQ (% PfCRTEcu1110 control), trans-stimulation: total [3H]CQ transport, normalised to the oocyte type control; for PfCRT-mediated [3H]CQ transport, trans-stimulation (% PfCRTEcu1110 control): normalised to oocyte type control; for [3H]CQ transport (% PfCRTDd2 control), trans-stimulation, PfCRTEcu1110: PfCRT-mediated component (background subtracted), sheet title says normalised to PfCRTDd2 control, mean ± SEM, SEM
Summary of the method: as §2

PfCRT^Dd2 [7] = biological target: T2, PfCRT^Dd2; experiment: [3H]CQ uptake into Xenopus oocytes, cis-inhibition by unlabelled solute; assay type: cell-based; conditions: PfCRTDd2 oocytes, background [3H]CQ accumulation subtracted, normalised to oocyte type control
Summary of the method: as §1

PfCRT^Ecu1110 [8] = biological target: T4, PfCRT^Ecu1110; experiment: as above; assay type: cell-based; conditions: for Uptake of [3H]CQ (% PfCRTEcu1110 control), cis-inhibition / PfCRT-mediated [3H]CQ transport, cis-inhibition (% PfCRTEcu1110 control): PfCRTEcu1110 oocytes; for Uptake of [3H]CQ (% PfCRTEcu1110 control), cis-inhibition: total [3H]CQ transport, normalised to the oocyte type control; for PfCRT-mediated [3H]CQ transport, cis-inhibition (% PfCRTEcu1110 control): background [3H]CQ accumulation subtracted, normalised to oocyte type control; for [3H]CQ transport (% PfCRTEcu1110 control), cis-inhibition, PfCRTEcu1110: PfCRT-mediated component (background subtracted), sheet title says normalised to PfCRTDd2 control, mean ± SEM, SEM
Summary of the method: as §1

[9] = [test solute]i = 45 mM (30 mM for some solutes due to solubility)
[10] = [test solute]i = 5 mM (intracellular)
[11] = [test solute]i = 45 mM (intracellular; 30 mM for some solutes due to solubility)
[12] = [test solute]i = 5 mM (injected)

T2 sequence (Q9N623 whole entry A220S/I356T/K76T/M74I/N326S/N75E/Q271E/R371I): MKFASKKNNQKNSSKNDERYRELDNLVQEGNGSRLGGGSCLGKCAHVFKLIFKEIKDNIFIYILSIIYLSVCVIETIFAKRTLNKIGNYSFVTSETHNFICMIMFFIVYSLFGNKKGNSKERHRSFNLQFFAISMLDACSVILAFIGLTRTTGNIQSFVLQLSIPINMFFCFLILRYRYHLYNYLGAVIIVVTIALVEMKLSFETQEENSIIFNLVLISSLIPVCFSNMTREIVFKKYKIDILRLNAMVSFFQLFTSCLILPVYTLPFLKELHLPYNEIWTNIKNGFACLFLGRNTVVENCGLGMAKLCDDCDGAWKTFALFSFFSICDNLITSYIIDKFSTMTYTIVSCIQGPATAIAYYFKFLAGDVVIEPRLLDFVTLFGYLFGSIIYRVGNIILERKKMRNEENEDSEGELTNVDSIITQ
T4 sequence (Q9N623 whole entry A220S/I356L/K76T/N326D): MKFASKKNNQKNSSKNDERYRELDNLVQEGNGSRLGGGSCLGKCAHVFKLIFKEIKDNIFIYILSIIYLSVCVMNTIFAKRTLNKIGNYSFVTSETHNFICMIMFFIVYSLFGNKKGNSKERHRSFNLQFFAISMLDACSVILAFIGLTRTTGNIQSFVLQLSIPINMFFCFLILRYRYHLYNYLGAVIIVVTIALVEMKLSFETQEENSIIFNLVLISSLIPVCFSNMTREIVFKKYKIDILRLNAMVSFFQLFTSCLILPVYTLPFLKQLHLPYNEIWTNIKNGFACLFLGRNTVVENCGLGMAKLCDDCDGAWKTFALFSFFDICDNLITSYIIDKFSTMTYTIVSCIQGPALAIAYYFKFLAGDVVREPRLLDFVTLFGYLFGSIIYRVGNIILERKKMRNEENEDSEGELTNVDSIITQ
T1 sequence (Q8IBZ9 59-398): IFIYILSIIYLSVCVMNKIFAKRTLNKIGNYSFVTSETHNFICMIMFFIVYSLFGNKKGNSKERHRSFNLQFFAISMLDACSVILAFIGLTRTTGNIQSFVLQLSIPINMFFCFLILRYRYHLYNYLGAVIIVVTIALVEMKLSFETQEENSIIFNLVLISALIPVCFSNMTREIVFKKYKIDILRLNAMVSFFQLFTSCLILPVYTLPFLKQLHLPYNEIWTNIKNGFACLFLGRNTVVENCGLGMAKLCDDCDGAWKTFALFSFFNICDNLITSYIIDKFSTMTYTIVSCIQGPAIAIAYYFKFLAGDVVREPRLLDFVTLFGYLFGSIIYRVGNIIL
T3 sequence (Q8IDM6 whole entry): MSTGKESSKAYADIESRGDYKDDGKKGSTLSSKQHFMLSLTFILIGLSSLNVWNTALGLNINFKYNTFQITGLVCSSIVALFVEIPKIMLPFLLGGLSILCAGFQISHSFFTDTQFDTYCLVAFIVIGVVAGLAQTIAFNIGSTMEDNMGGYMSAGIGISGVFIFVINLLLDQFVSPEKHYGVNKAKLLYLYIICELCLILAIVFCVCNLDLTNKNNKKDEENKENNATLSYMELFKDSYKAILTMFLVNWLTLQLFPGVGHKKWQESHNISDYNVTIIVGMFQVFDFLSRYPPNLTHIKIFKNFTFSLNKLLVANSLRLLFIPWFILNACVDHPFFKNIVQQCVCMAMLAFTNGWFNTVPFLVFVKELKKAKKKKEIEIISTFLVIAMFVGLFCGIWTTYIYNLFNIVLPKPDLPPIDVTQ

Substance: ASLD [AD-4]
- Uptake of [3H]CQ (% non-expressing oocyte control), cis-inhibition (non-expressing oocytes [1]; [test solute] = 0.5 mM): 99 ± 5.3 % non-expressing oocyte control
- Uptake of [3H]CQ (% non-expressing oocyte control), cis-inhibition (non-expressing oocytes [1]; [test solute] = 1 mM): 99 ± 5.2 % non-expressing oocyte control
- Uptake of [3H]CQ (% non-expressing oocyte control), cis-inhibition (non-expressing oocytes [1]; [test solute] = 2 mM): 99 ± 4.6 % non-expressing oocyte control
- Uptake of [3H]CQ (% PfCRT3D7 control), cis-inhibition (PfCRT^3D7 [2]; [test solute] = 0.5 mM): 98 ± 4.4 % PfCRT3D7 control
- Uptake of [3H]CQ (% PfCRT3D7 control), cis-inhibition (PfCRT^3D7 [2]; [test solute] = 1 mM): 99 ± 4.7 % PfCRT3D7 control
- Uptake of [3H]CQ (% PfCRT3D7 control), cis-inhibition (PfCRT^3D7 [2]; [test solute] = 2 mM): 99 ± 6.1 % PfCRT3D7 control
- Uptake of [3H]CQ (% non-expressing oocyte control), trans-stimulation (non-expressing oocytes [3]; [test solute]i = 5 mM): 100 ± 4.9 % non-expressing oocyte control
- Uptake of [3H]CQ (% non-expressing oocyte control), trans-stimulation (non-expressing oocytes [3]; [9]): 98 ± 2.6 % non-expressing oocyte control
- Uptake of [3H]CQ (% PfCRTDd2 control), trans-stimulation (PfCRT^Dd2 [4]; [test solute]i = 5 mM): 98 ± 3.3 % PfCRTDd2 control
- Uptake of [3H]CQ (% PfCRTDd2 control), trans-stimulation (PfCRT^Dd2 [4]; [9]): 97 ± 3.9 % PfCRTDd2 control
- PfCRT-mediated [3H]CQ transport, trans-stimulation (% PfCRTDd2 control) (PfCRT^Dd2 [4]; [10]): 96 ± 2.9 % PfCRTDd2 control
- PfCRT-mediated [3H]CQ transport, trans-stimulation (% PfCRTDd2 control) (PfCRT^Dd2 [4]; [11]): 95 ± 2.6 % PfCRTDd2 control
- [3H]CQ transport (% PfCRTDd2 control), trans-stimulation, PfCRTDd2 (PfCRT^Dd2 [4]; [12]): 96 ± 2.9 % PfCRTDd2 control
- [3H]CQ transport (% PfCRTDd2 control), trans-stimulation, PfCRTDd2 (PfCRT^Dd2 [4]; [9]): 95 ± 2.6 % PfCRTDd2 control
- Uptake of [3H]CQ (% PfNT1 control), trans-stimulation (PfNT1; [test solute]i = 5 mM): 99 ± 2.5 % PfNT1 control
- Uptake of [3H]CQ (% PfNT1 control), trans-stimulation (PfNT1; [9]): 96 ± 2.2 % PfNT1 control
- Uptake of [3H]CQ (% PfCRT3D7 control), trans-stimulation (PfCRT^3D7 [5]; [test solute]i = 5 mM): 99 ± 3.7 % PfCRT3D7 control
- Uptake of [3H]CQ (% PfCRT3D7 control), trans-stimulation (PfCRT^3D7 [5]; [9]): 100 ± 2.6 % PfCRT3D7 control
- PfCRT-mediated [3H]CQ transport, trans-stimulation (% PfCRT3D7 control) (PfCRT^3D7 [5]; [10]): 97 ± 2.0 % PfCRT3D7 control
- PfCRT-mediated [3H]CQ transport, trans-stimulation (% PfCRT3D7 control) (PfCRT^3D7 [5]; [11]): 98 ± 3.3 % PfCRT3D7 control
- Uptake of [3H]CQ (% PfCRTEcu1110 control), trans-stimulation (PfCRT^Ecu1110 [6]; [test solute]i = 5 mM): 100 ± 3.2 % PfCRTEcu1110 control
- Uptake of [3H]CQ (% PfCRTEcu1110 control), trans-stimulation (PfCRT^Ecu1110 [6]; [9]): 99 ± 3.2 % PfCRTEcu1110 control
- PfCRT-mediated [3H]CQ transport, trans-stimulation (% PfCRTEcu1110 control) (PfCRT^Ecu1110 [6]; [10]): 98 ± 4.1 % PfCRTEcu1110 control
- PfCRT-mediated [3H]CQ transport, trans-stimulation (% PfCRTEcu1110 control) (PfCRT^Ecu1110 [6]; [11]): 97 ± 2.9 % PfCRTEcu1110 control
- [3H]CQ transport (% PfCRTDd2 control), trans-stimulation, PfCRTEcu1110 (PfCRT^Ecu1110 [6]; [12]): 30 ± 1.7 % PfCRTEcu1110 control
- [3H]CQ transport (% PfCRTDd2 control), trans-stimulation, PfCRTEcu1110 (PfCRT^Ecu1110 [6]; [9]): 29 ± 1.4 % PfCRTEcu1110 control
- PfCRT-mediated [3H]CQ transport, cis-inhibition (% PfCRTDd2 control) (PfCRT^Dd2 [7]; [test solute] = 0.5 mM): 31 ± 1.9 % PfCRTDd2 control
- PfCRT-mediated [3H]CQ transport, cis-inhibition (% PfCRTDd2 control) (PfCRT^Dd2 [7]; [test solute] = 1 mM): 22 ± 0.8 % PfCRTDd2 control
- PfCRT-mediated [3H]CQ transport, cis-inhibition (% PfCRTDd2 control) (PfCRT^Dd2 [7]; [test solute] = 2 mM): 12 ± 0.3 % PfCRTDd2 control
- Uptake of [3H]CQ (% PfCRTEcu1110 control), cis-inhibition (PfCRT^Ecu1110 [8]; [test solute] = 0.5 mM): 49 ± 9.7 % PfCRTEcu1110 control
- Uptake of [3H]CQ (% PfCRTEcu1110 control), cis-inhibition (PfCRT^Ecu1110 [8]; [test solute] = 1 mM): 32 ± 8.5 % PfCRTEcu1110 control
- Uptake of [3H]CQ (% PfCRTEcu1110 control), cis-inhibition (PfCRT^Ecu1110 [8]; [test solute] = 2 mM): 26 ± 5.6 % PfCRTEcu1110 control
- PfCRT-mediated [3H]CQ transport, cis-inhibition (% PfCRTEcu1110 control) (PfCRT^Ecu1110 [8]; [test solute] = 0.5 mM): 42 ± 2.1 % PfCRTEcu1110 control
- PfCRT-mediated [3H]CQ transport, cis-inhibition (% PfCRTEcu1110 control) (PfCRT^Ecu1110 [8]; [test solute] = 1 mM): 28 ± 3.4 % PfCRTEcu1110 control
- PfCRT-mediated [3H]CQ transport, cis-inhibition (% PfCRTEcu1110 control) (PfCRT^Ecu1110 [8]; [test solute] = 2 mM): 21 ± 1.1 % PfCRTEcu1110 control
- [3H]CQ transport (% PfCRTEcu1110 control), cis-inhibition, PfCRTEcu1110 (PfCRT^Ecu1110 [8]; [test solute] = 0.5 mM): 13 ± 0.2 % PfCRTEcu1110 control
- [3H]CQ transport (% PfCRTEcu1110 control), cis-inhibition, PfCRTEcu1110 (PfCRT^Ecu1110 [8]; [test solute] = 2 mM): 6.0 ± 0.03 % PfCRTEcu1110 control
